# Patent publication US6500853B1, “Inhibitors of phospholipase enzymes” (Genetics Institute, LLC, priority 1998, dated 2002)
# Where “and” joins values, the source holds several entries; their conditions need not be identical. Identical values can stand only once. Like-named read-outs stand apart in the source and are kept apart here.
# Experiments:
# cPLA2 = target: T1, cPLA2 (Homo sapiens, UniProt P47712); test: Coumarin Assay (cPLA2 inhibition); type: biochemical; conditions: for inhibition at 50 µM: CONCENTRATION 50 micromolar; for inhibition at 6.25 µM: CONCENTRATION 6.25 micromolar; for inhibition at 10 µM: CONCENTRATION 10 micromolar; for inhibition at 100 µM: CONCENTRATION 100 micromolar
# T1 sequence (P47712 1-749): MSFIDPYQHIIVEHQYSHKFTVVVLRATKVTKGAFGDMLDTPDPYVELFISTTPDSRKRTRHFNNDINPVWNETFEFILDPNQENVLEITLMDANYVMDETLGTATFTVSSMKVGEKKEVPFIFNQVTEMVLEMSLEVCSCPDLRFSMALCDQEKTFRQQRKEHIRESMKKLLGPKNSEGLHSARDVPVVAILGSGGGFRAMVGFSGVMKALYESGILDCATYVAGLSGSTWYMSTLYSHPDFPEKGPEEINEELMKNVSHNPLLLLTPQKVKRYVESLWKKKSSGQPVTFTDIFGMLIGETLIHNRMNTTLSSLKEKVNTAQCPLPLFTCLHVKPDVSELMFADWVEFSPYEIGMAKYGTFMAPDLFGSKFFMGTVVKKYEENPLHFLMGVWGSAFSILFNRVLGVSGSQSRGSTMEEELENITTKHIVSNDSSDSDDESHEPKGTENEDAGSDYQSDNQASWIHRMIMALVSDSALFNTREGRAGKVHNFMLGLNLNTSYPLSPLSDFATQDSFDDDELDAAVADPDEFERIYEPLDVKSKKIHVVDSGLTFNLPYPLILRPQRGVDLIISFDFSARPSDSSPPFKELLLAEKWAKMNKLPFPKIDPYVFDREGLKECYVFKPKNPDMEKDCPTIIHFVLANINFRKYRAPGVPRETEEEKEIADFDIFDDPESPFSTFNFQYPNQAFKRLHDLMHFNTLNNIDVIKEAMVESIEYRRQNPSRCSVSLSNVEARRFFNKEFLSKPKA
# Outline: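 Percent inhibition at the stated concentration, from the rate of 460 nm emission rise (360 nm excitation) per minute. Reaction started by adding 4 μg enzyme to compound and 60 μM 7-hydroxycoumarinyl 6-heptenoate in Hepes buffer pH 7.5 with 1 mM EDTA.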
# [1] = test system: Rat Carrageenan-Induced Footpad Edema; test: Rat Carrageenan-Induced Footpad Edema Test; type: in vivo, male Sprague Dawley rats; conditions: Rattus norvegicus, 3 h, footpad volume 3 hours after carrageenan, read-out: PERCENT INHIBITION
structure (smiles),measurement,setting,value
"O=C(O)CN1CCN(Cc2cn(C(c3ccccc3)c3ccccc3)c3ccc(NC(=O)C4CCCC4)cc23)CC1 [Example 66, 2-[4-({1-benzhydryl-5-[(cyclopentylcarbonyl)amino]-1H-indol-3-yl}methyl)piperazino]acetic acid]",inhibition at 70 µM,"cPLA2; CONCENTRATION 70 micromolar, read-out: PERCENT INHIBITION @",50%
same,PERCENT INHIBITION @,cPLA2; CONCENTRATION 200 micromolar,19%
same,inhibition at 200 µM,"cPLA2; CONCENTRATION 200 micromolar, read-out: PERCENT INHIBITION @",15%
same,inhibition in vivo at 5 mg/kg,"[1]; iv, IV",25.3%
"O=C(O)c1cccc(NCc2cn(C(c3ccccc3)c3ccccc3)c3ccc(NC(=O)C4CCCC4)cc23)c1 [Example 65, 3-[({1-benzhydryl-5-[(cyclopentylcarbonyl)amino]-1H-indol-3-yl}methyl)amino]benzoic acid]",inhibition at 50 µM,cPLA2; read-out: PERCENT INHIBITION @,47%
same,inhibition at 72 µM,"cPLA2; CONCENTRATION 72 micromolar, read-out: PERCENT INHIBITION @",50%
same,inhibition at 80 µM,"cPLA2; CONCENTRATION 80 micromolar, read-out: PERCENT INHIBITION @",50%
same,inhibition in vivo at 5 mg/kg,"[1]; iv, IV",2.84%
"COc1cc(C(=O)O)ccc1Cc1cn(C(c2ccccc2)c2ccccc2)c2cc3c(cc12)OCO3 [Example 16, 4-[(5-benzhydryl-5H-[1,3]dioxolo[4,5-f]indol-7-yl)methyl]-3-methoxybenzoic acid]",PERCENT INHIBITION @,cPLA2; CONCENTRATION 0.125 micromolar,61% and 71%
same,inhibition at 0.14 µM,"cPLA2; CONCENTRATION 0.14 micromolar, read-out: PERCENT INHIBITION @",50%
same,inhibition at 0.17 µM,"cPLA2; CONCENTRATION 0.17 micromolar, read-out: PERCENT INHIBITION @",50%
same,inhibition at 0.25 µM,"cPLA2; CONCENTRATION 0.25 micromolar, read-out: PERCENT INHIBITION @",69%
same,inhibition at 6.25 µM,cPLA2; read-out: PERCENT INHIBITION @,98%
same,inhibition in vivo at 2 mg/kg,"[1]; po, PO",3.8%
same,inhibition in vivo at 10 mg/kg,"[1]; po, PO",15%
"O=C(NS(=O)(=O)C(F)(F)F)c1ccc(Cc2cn(C(c3ccccc3)c3ccccc3)c3ccc(Br)cc23)cc1 [Example 58, N-{4-[(1-benzhydryl-5-bromo-1H-indol-3-yl)methyl]benzoyl}(trifluoro)methanesulfonamide]",inhibition at 1.65 µM,"cPLA2; CONCENTRATION 1.65 micromolar, read-out: PERCENT INHIBITION @",50%
same,inhibition in vivo at 2 mg/kg,"[1]; po, PO",13.8%
same,inhibition in vivo at 10 mg/kg,"[1]; po, PO",9.96%
"COc1cc(C(=O)O)ccc1Cc1cn(C(c2ccccc2)c2ccccc2)c2ccc(NC(=O)OC3CCCC3)cc12 [Example 3, 4-[(1-benzhydryl-5-{[(cyclopentyloxy)carbonyl]amino}1H-indol-3-yl)methyl]-3-methoxybenzoic acid]",inhibition at 5 µM,"cPLA2; CONCENTRATION 5 micromolar, read-out: PERCENT INHIBITION @",50%
same,inhibition at 6.25 µM,cPLA2; read-out: PERCENT INHIBITION @,51%
same,inhibition at 6.4 µM,"cPLA2; CONCENTRATION 6.4 micromolar, read-out: PERCENT INHIBITION @",50%
same,inhibition at 10 µM,cPLA2; read-out: PERCENT INHIBITION @,41%
same,inhibition at 17.5 µM,"cPLA2; CONCENTRATION 17.5 micromolar, read-out: PERCENT INHIBITION @",50%
same,inhibition at 19 µM,"cPLA2; CONCENTRATION 19 micromolar, read-out: PERCENT INHIBITION @",50%
same,PERCENT INHIBITION @,cPLA2; CONCENTRATION 20 micromolar,38% and 43% and 44%
same,inhibition at 20 µM,"cPLA2; CONCENTRATION 20 micromolar, read-out: PERCENT INHIBITION @",37%
same,inhibition at 22 µM,"cPLA2; CONCENTRATION 22 micromolar, read-out: PERCENT INHIBITION @",50%
same,inhibition at 23 µM,"cPLA2; CONCENTRATION 23 micromolar, read-out: PERCENT INHIBITION @",50%
same,inhibition at 23.5 µM,"cPLA2; CONCENTRATION 23.5 micromolar, read-out: PERCENT INHIBITION @",50%
same,inhibition at 24 µM,"cPLA2; CONCENTRATION 24 micromolar, read-out: PERCENT INHIBITION @",50%
same,inhibition at 100 µM,cPLA2; read-out: PERCENT INHIBITION @,39%
same,inhibition in vivo at 5 mg/kg,"[1]; po, PO",21.5%
same,inhibition in vivo at 20 mg/kg,"[1]; po, PO-, 20 mg/Kg",19.6%
"Cc1ccccc1S(=O)(=O)NC(=O)c1ccc(Cc2cn(C(c3ccccc3)c3ccccc3)c3ccc(Br)cc23)cc1 [Example 57, N-{4-[(1-benzhydryl-5-bromo-1H-indol-3-yl)methyl]benzoyl}-2-methylbenzenesulfonamide]",inhibition at 1.05 µM,"cPLA2; CONCENTRATION 1.05 micromolar, read-out: PERCENT INHIBITION @",50%
same,inhibition at 1.38 µM,"cPLA2; CONCENTRATION 1.38 micromolar, read-out: PERCENT INHIBITION @",50%
same,inhibition at 1.4 µM,"cPLA2; CONCENTRATION 1.4 micromolar, read-out: PERCENT INHIBITION @",50%
same,inhibition in vivo at 2 mg/kg,"[1]; po, PO",10.4%
same,inhibition in vivo at 10 mg/kg,"[1]; po, PO",20.7%
"O=C(O)CCNC(=O)C(=O)c1cn(C(c2ccccc2)c2ccccc2)c2ccc(NC(=O)C3CCCC3)cc12 [Example 103, 3-[(2-{1-benzhydryl-5-[(cyclopentylcarbonyl)amino]-1H-indol-3-yl}-2-oxoacetyl)amino]propanoic acid]",inhibition at 100 µM,cPLA2; read-out: PERCENT INHIBITION @,50%
same,inhibition at 104 µM,"cPLA2; CONCENTRATION 104 micromolar, read-out: PERCENT INHIBITION @",50%
same,inhibition in vivo at 2 mg/kg,"[1]; po, PO",16.5%
same,inhibition in vivo at 10 mg/kg,"[1]; po, PO",17.3%
"COc1cc(C(=O)O)ccc1Cc1cn(C(c2ccccc2)c2ccccc2)c2ccc(NS(=O)(=O)c3sc(NC(C)=O)nc3C)cc12 [Example 90, 4-{[5-({[2-(acetylamino)-4-methyl-1,3-thiazol-5-yl]sulfonyl}amino)-1-benzhydryl-1H-indol-3-yl]methyl}-3-methoxybenzoic acid]",inhibition at 10.2 µM,"cPLA2; CONCENTRATION 10.2 micromolar, read-out: PERCENT INHIBITION @",50%
same,inhibition at 10.5 µM,"cPLA2; CONCENTRATION 10.5 micromolar, read-out: PERCENT INHIBITION @",50%
same,inhibition in vivo at 2 mg/kg,"[1]; po, PO",-0.18%
same,inhibition in vivo at 10 mg/kg,"[1]; po, PO",2.7%
"Cc1ccc(S(=O)(=O)NC(=O)c2cccc(NC(=O)C(=O)c3cn(Cc4ccc(Cc5ccccc5)cc4)c4ccc(OCc5ccccc5)cc34)c2)cc1 [Example 76, 2-[1-(4-benzylbenzyl)-5-(benzyloxy)-1H-indol-3-yl]-N-[3-({[(4-methylphenyl)sulfonyl]amino}carbonyl)phenyl]-2-oxoacetamide]",inhibition at 4 µM,"cPLA2; CONCENTRATION 4 micromolar, read-out: PERCENT INHIBITION @",50%
same,inhibition in vivo at 5 mg/kg,"[1]; iv, IV",14.8%
"O=C(O)Cc1cn(Cc2ccccc2)c2ccc(-c3cc4ccccc4o3)cc12 [Example 80, 2-[5-(1-benzofuran-2-yl)-1-benzyl-1H-indol-3-yl]acetic acid]",inhibition at 48 µM,"cPLA2; CONCENTRATION 48 micromolar, read-out: PERCENT INHIBITION @",50%
same,inhibition at 50 µM,cPLA2; read-out: PERCENT INHIBITION @,60%
same,inhibition in vivo at 5 mg/kg,"[1]; iv, IV",10.2%
"O=C(Nc1cccc(C(=O)O)c1)C(=O)c1cn(C(c2ccccc2)c2ccccc2)c2ccccc12 [Example 61, 3-{[2-(1-benzhydryl-1H-indol-3-yl)-2-oxoacetyl]amino}benzoic acid]",inhibition at 10 µM,cPLA2; read-out: PERCENT INHIBITION @,50%
same,inhibition at 12.5 µM,"cPLA2; CONCENTRATION 12.5 micromolar, read-out: PERCENT INHIBITION @",54%
same,inhibition in vivo at 5 mg/kg,"[1]; iv, IV",18.3%
"COc1cc(C(=O)NS(=O)(=O)C(F)(F)F)ccc1Cc1cn(C(c2ccccc2)c2ccccc2)c2ccc(NC(=O)C3CCCC3)cc12 [Example 40, N-{1-benzhydryl-3-[2-methoxy-4-({[(trifluoromethyl)sulfonyl]amino}carbonyl)benzyl]-1H-indol-5-yl}cyclopentanecarboxamide]",PERCENT INHIBITION @,cPLA2; CONCENTRATION 2.5 micromolar,55%
same,inhibition at 2.5 µM,"cPLA2; CONCENTRATION 2.5 micromolar, read-out: PERCENT INHIBITION @",50%
same,inhibition at 3 µM,"cPLA2; CONCENTRATION 3 micromolar, read-out: PERCENT INHIBITION @",50%
same,inhibition at 3.6 µM,"cPLA2; CONCENTRATION 3.6 micromolar, read-out: PERCENT INHIBITION @",50%
same,inhibition in vivo at 5 mg/kg,"[1]; iv, IV",8.21%
